Measurements: patent publication US20070128217A1 (priority 2003, published 2007)

Legend:
[1] = test system: antibodies in sera from SARS patients (sera 1a, 1b, 2, 6, 37, 62, London, SARS-yellow, SARS-green); assay type: binding, human; set-up: Binding of serum 6 to linear peptides of protein X1 of SARS-CoV Urbani / Binding of serum 37 to linear peptides of protein X1 of SARS-CoV Urbani / Binding of serum 6 to looped/cyclic peptide (PEPSCAN-ELISA) / Binding of serum 37 to looped/cyclic peptide (PEPSCAN-ELISA) / Binding of serum 37 to looped/cyclic peptides of protein X1 of SARS-CoV Urbani / Binding of serum 6 to linear peptides of protein X2 / Binding of serum 37 to linear peptides of protein X2 / Binding of serum 37 to looped/cyclic peptides of protein X2 of SARS-CoV Urbani / Binding of serum 6 to linear peptides of protein M of SARS-CoV Urbani / Binding of serum 37 to linear peptides of protein M of SARS-CoV Urbani / Binding of serum 6 to looped/cyclic peptides of protein M of SARS-CoV Urbani / Binding of serum 37 to looped/cyclic peptides of protein M of SARS-CoV Urbani / Binding of serum 6 to linear peptides of protein X3 of SARS-CoV Urbani / Binding of serum 37 to linear peptides of protein X3 of SARS-CoV Urbani / Binding of serum 37 to looped/cyclic peptides of protein X3 of SARS-CoV Urbani / Binding of serum 6 to linear peptides of protein X4 of SARS-CoV Urbani / Binding of serum 37 to linear peptides of protein X4 of SARS-CoV Urbani / Binding of serum 37 to looped/cyclic peptides of protein X4 of SARS-CoV Urbani / Binding of serum 6 to linear peptides of protein X5 of SARS-CoV Urbani / Binding of serum 37 to linear peptides of protein X5 of SARS-CoV Urbani / Binding of serum 37 to looped/cyclic peptides of protein X5 of SARS-CoV Urbani / Binding of serum 6 to linear peptides of protein N of SARS-CoV Urbani / Binding of serum 37 to linear peptides of protein N of SARS-CoV Urbani / Binding of serum 6 to linear peptide (PEPSCAN-ELISA) / Binding of serum 1a to looped/cyclic peptides of protein N of SARS-CoV Urbani / Binding of serum 1b to looped/cyclic peptides of protein N of SARS-CoV Urbani / Binding of serum 2 to looped/cyclic peptides of protein N of SARS-CoV Urbani / Binding of serum 6 to looped/cyclic peptides of protein N of SARS-CoV Urbani / Binding of serum 37 to looped/cyclic peptides of protein N of SARS-CoV Urbani / Binding of serum 62 to looped/cyclic peptides of protein N of SARS-CoV Urbani / Binding of serum London to looped/cyclic peptides of protein N of SARS-CoV Urbani / Binding of serum SARS-green to looped/cyclic peptides of protein N of SARS-CoV Urbani: unit not given here
[2] = test system: control sera (pooled serum of ten healthy LUMC hospital workers; commercial negative donor pooled serum from the Dutch bloodbank); assay type: binding, human; set-up: Binding of Control serum LUMC to linear peptides / Binding of Control serum Blood-bank to linear peptides / Binding of Control serum LUMC to looped peptides / Binding of Control Serum Blood-Bank to Looped peptides / Binding of Control serum LUMC to linear peptides of the protein M of SARS-CoV Urbani / Binding of Control serum Blood-bank to linear peptides of the protein M of SARS-CoV Urbani / Binding of Control serum LUMC to looped peptides of the protein M of SARS-CoV Urbani / Binding of Control Serum Blood-Bank to Looped peptides of the protein M of SARS-CoV Urbani: unit not given here
[3] = test system: rabbit serum obtained by immunizing a rabbit with the SARS-CoV strain Frankfurt 1; assay type: binding; set-up: Binding of a rabbit serum to linear peptides / Binding of a rabbit serum to looped peptides / Rabbit serum linear peptides / Rabbit serum looped peptides / Binding of a rabbit serum to linear peptides of protein N of SARS-CoV Urbani (Rabbit serum linear peptides) / Binding of a rabbit serum to looped/cyclic peptides of protein N of SARS-CoV Urbani (Rabbit serum looped peptides): unit not given here

With VTDTIVVTEGDGIST the “Binding of serum 1a to linear peptides of protein X1 of SARS-CoV Urbani” value [1] was 0.6, the “Binding of serum 1a to looped/cyclic peptides of protein X1 of SARS-CoV Urbani” value [1] was 0.4 and the “Binding of serum 1b to linear peptides of protein X1 of SARS-CoV Urbani” value [1] was 0.5. For the same sequence, the “Binding of serum 1b to looped/cyclic peptides of protein X1 of SARS-CoV Urbani” value [1] was 0.3, the “Binding of serum 2 to linear peptides of protein X1 of SARS-CoV Urbani” value [1] was 0.3 and the “Binding of serum 2 to looped/cyclic peptides of protein X1 of SARS-CoV Urbani” value [1] was 0.2. For the same sequence, the “Binding of serum 6 to linear peptides of protein X1 of SARS-CoV Urbani” value [1] was 0.4, the “Binding of serum 6 to looped/cyclic peptides of protein X1 of SARS-CoV Urbani” value [1] was 0.1 and the “Binding of serum 37 to linear peptides of protein X1 of SARS-CoV Urbani” value [1] was 0.5. For the same sequence, the “Binding of serum 37 to looped/cyclic peptides of protein X1 of SARS-CoV Urbani” value [1] was 0.4, the “Binding of serum 62 to linear peptides of protein X1 of SARS-CoV Urbani” value [1] was 0.4 and the “Binding of serum 62 to looped/cyclic peptides of protein X1 of SARS-CoV Urbani” value [1] was 0.4. The “Binding of serum London to linear peptides of protein X1 of SARS-CoV Urbani” value [1] was 0.2, the “Binding of serum London to looped/cyclic peptides of protein X1 of SARS-CoV Urbani” value [1] was 0.2 and the “Binding of serum SARS-green to linear peptides of protein X1 of SARS-CoV Urbani” value [1] was 0.1. The “Binding of serum SARS-green to looped/cyclic peptides of protein X1 of SARS-CoV Urbani” value [1] was 0.2, the “Binding of serum SARS-yellow to linear peptides of protein X1 of SARS-CoV Urbani” value [1] was 0.3 and the “Binding of serum SARS-yellow to looped/cyclic peptides of protein X1 of SARS-CoV Urbani” value [1] was 0.5. The “Binding of Control Serum Blood-Bank to Looped peptides” value [2] was 0.4, the “Binding of Control serum Blood-bank to linear peptides” value [2] was 0.4 and the “Binding of Control serum LUMC to linear peptides” value [2] was 0.4. The “Binding of Control serum LUMC to looped peptides” value [2] was 0.4, the “Binding of a rabbit serum to linear peptides” value [3] was 0.1 and the “Binding of a rabbit serum to looped peptides” value [3] was 0.5.
With VTEGDGISTPKLKED the “Binding of serum 1a to linear peptides of protein X1 of SARS-CoV Urbani” value [1] was 0.5, the “Binding of serum 1a to looped/cyclic peptides of protein X1 of SARS-CoV Urbani” value [1] was 0.3 and the “Binding of serum 1b to linear peptides of protein X1 of SARS-CoV Urbani” value [1] was 0.4. The “Binding of serum 1b to looped/cyclic peptides of protein X1 of SARS-CoV Urbani” value [1] was 0.2, the “Binding of serum 2 to linear peptides of protein X1 of SARS-CoV Urbani” value [1] was 0.3 and the “Binding of serum 2 to looped/cyclic peptides of protein X1 of SARS-CoV Urbani” value [1] was 0.1. The “Binding of serum 6 to linear peptides of protein X1 of SARS-CoV Urbani” value [1] was 0.3, the “Binding of serum 6 to looped/cyclic peptides of protein X1 of SARS-CoV Urbani” value [1] was 0.1 and the “Binding of serum 37 to linear peptides of protein X1 of SARS-CoV Urbani” value [1] was 0.4. For the same sequence, the “Binding of serum 37 to looped/cyclic peptides of protein X1 of SARS-CoV Urbani” value [1] was 0.3, the “Binding of serum 62 to linear peptides of protein X1 of SARS-CoV Urbani” value [1] was 0.3 and the “Binding of serum 62 to looped/cyclic peptides of protein X1 of SARS-CoV Urbani” value [1] was 0.3. For the same sequence, the “Binding of serum London to linear peptides of protein X1 of SARS-CoV Urbani” value [1] was 0.3, the “Binding of serum London to looped/cyclic peptides of protein X1 of SARS-CoV Urbani” value [1] was 0.2 and the “Binding of serum SARS-green to linear peptides of protein X1 of SARS-CoV Urbani” value [1] was 0.1. The “Binding of serum SARS-green to looped/cyclic peptides of protein X1 of SARS-CoV Urbani” value [1] was 0.1, the “Binding of serum SARS-yellow to linear peptides of protein X1 of SARS-CoV Urbani” value [1] was 0.2 and the “Binding of serum SARS-yellow to looped/cyclic peptides of protein X1 of SARS-CoV Urbani” value [1] was 0.1. For the same sequence, the “Binding of Control Serum Blood-Bank to Looped peptides” value [2] was 0.3, the “Binding of Control serum Blood-bank to linear peptides” value [2] was 0.2 and the “Binding of Control serum LUMC to linear peptides” value [2] was 0.2. For the same sequence, the “Binding of Control serum LUMC to looped peptides” value [2] was 0.3, the “Binding of a rabbit serum to linear peptides” value [3] was 0.0 and the “Binding of a rabbit serum to looped peptides” value [3] was 0.4.
For VTIAEILIIIMRTFR, the “Binding of serum 1a to linear peptides of protein X3 of SARS-CoV Urbani” value [1] was 0.7, the “Binding of serum 1a to looped/cyclic peptides of protein X3 of SARS-CoV Urbani” value [1] was 0.7 and the “Binding of serum 1b to linear peptides of protein X3 of SARS-CoV Urbani” value [1] was 0.3. The “Binding of serum 1b to looped/cyclic peptides of protein X3 of SARS-CoV Urbani” value [1] was 0.4, the “Binding of serum 2 to linear peptides of protein X3 of SARS-CoV Urbani” value [1] was 0.7 and the “Binding of serum 2 to looped/cyclic peptides of protein X3 of SARS-CoV Urbani” value [1] was 0.7. The “Binding of serum 6 to linear peptides of protein X3 of SARS-CoV Urbani” value [1] was 0.7, the “Binding of serum 6 to looped/cyclic peptides of protein X3 of SARS-CoV Urbani” value [1] was 0.7 and the “Binding of serum 37 to linear peptides of protein X3 of SARS-CoV Urbani” value [1] was 0.4. The “Binding of serum 37 to looped/cyclic peptides of protein X3 of SARS-CoV Urbani” value [1] was 0.6, the “Binding of serum 62 to linear peptides of protein X3 of SARS-CoV Urbani” value [1] was 0.6 and the “Binding of serum 62 to looped/cyclic peptides of protein X3 of SARS-CoV Urbani” value [1] was 0.5. The “Binding of serum London to linear peptides of protein X3 of SARS-CoV Urbani” value [1] was 0.6, the “Binding of serum London to looped/cyclic peptides of protein X3 of SARS-CoV Urbani” value [1] was 0.3 and the “Binding of serum SARS-green to linear peptides of protein X3 of SARS-CoV Urbani” value [1] was 0.5. The “Binding of serum SARS-green to looped/cyclic peptides of protein X3 of SARS-CoV Urbani” value [1] was 0.2, the “Binding of serum SARS-yellow to linear peptides of protein X3 of SARS-CoV Urbani” value [1] was 0.3 and the “Binding of serum SARS-yellow to looped/cyclic peptides of protein X3 of SARS-CoV Urbani” value [1] was 0.6. For the same sequence, the “Binding of Control Serum Blood-Bank to Looped peptides of the protein X3 of SARS-CoV Urbani” value [2] was 0.8, the “Binding of Control serum Blood-bank to linear peptides of the protein X3 of SARS-CoV Urbani” value [2] was 0.8 and the “Binding of Control serum LUMC to linear peptides of the protein X3 of SARS-CoV Urbani” value [2] was 0.6. The “Binding of Control serum LUMC to looped peptides of the protein X3 of SARS-CoV Urbani” value [2] was 0.8, the “Rabbit serum linear peptides” value [3] was 0.2 and the “Rabbit serum looped peptides” value [3] was 0.4.
